Earlier results in patent US20240261238A1, “METHOD OF TREATING DRUG RESISTANT EPILEPSY” (ICAHN SCHOOL OF MEDICINE AT MOUNT SINAI, priority 2021, published 2024).

How the values were obtained:
[1] = intranasal for treatment of pain vs intravenous ketamine studies in depression
[2] = intranasal, total dose
[3] = 0.5 mg/kg intravenous infusion given over 40 minutes
[4] = target: NMDA receptors; settings: read-out: Ki for binding to NMDA receptors
[5] = iontophoretic patch, 33 men and women

Question: With `CNC1(c2ccccc2Cl)CCCCC1=O` (racemic) [ketamine, 2-(2-chlorophenyl)-2-(methylamino)-cyclohexanone] as the compound, how does the “intranasal plasma levels lower than in intravenous studies” value [1] read?
Answer: 3-4 fold

Question: What about the “serious adverse events caused by IV administration” value of the same compound?
Answer: No serious adverse events

Question: What about the “time by which side effects typically abate post-infusion” value (IV, euphoria, elevated BP, increased libido, perceptual disturbances) of the same compound?
Answer: ≤ 80 min

Question: And the “dose at which mild adverse effects (dysphoria and/or hallucinations) can occur” value [2]?
Answer: greater than 50 mg

Question: And the “dose usually required for mild adverse effects (dysphoria and/or hallucinations)” value [2]?
Answer: greater than 100 mg

Question: And the “duration of improvements in depression” value [3]?
Answer: up to 1 week

Question: What about the serious adverse events [3] of the same compound?
Answer: no serious adverse events

Question: And the “time to improvements in depression post-injection” value [3]?
Answer: ≤ 2 h

Question: Which Ki [4] does the source give for `CN[C@@]1(c2ccccc2Cl)CCCCC1=O` [R(−)] here?
Answer: 1100 nM

Question: With `CN[C@]1(c2ccccc2Cl)CCCCC1=O` [S(+)-ketamine] as the compound, how does the Ki [4] read?
Answer: 3200 nM

Question: And the “potency relative to racemic mixture of ketamine” value [5]?
Answer: two times more potent
